In the series the test system is CCRIS mutagenicity, Ames/micronucleus/aberration tests. As to the kind of experiment: CCRIS mutagenicity studies. The following applies: Test System: AMES SALMONELLA TYPHIMURIUM; Strain/Indicator: TA100; Metabolic Activation: RAT, LIVER, S-9, PHENOBARBITAL AND 5,6-BENZOFLAVONE; Method: PREINCUBATION

The source made the active and inactive calls. No rule for the calls is given here.

For `Fc1cnc2c(ccc3ncc(F)cc32)c1`, the mutagenic call was “inactive; negative”.
